We go through 22 molecules from ChEMBL document CHEMBL3875143, “Novel multi-target-directed ligands for Alzheimer's disease: Combining cholinesterase inhibitors and 5-HT6 receptor antagonists. Design, synthesis and biological evaluation” (Eur J Med Chem, 2016).

What is called IC50 is the concentration needed to halve the response being measured. For orientation: Ki means a measure of affinity in units of concentration, obtained from inhibition or displacement. In general, inhibition refers to the relative decrease from the control value, in per cent.

Active and inactive are the calls of the source. The rule behind the calls is not given here.

Data set [1] has as its target Cholinesterase (Equus caballus, UniProt P81908).
Description: Inhibition of equine serum BuChE preincubated for 5 mins followed by butyrylthiocholine iodide substrate addition measured after 5 mins by Ellman's method
Data set [2] has as its target 5-hydroxytryptamine receptor 6 (Homo sapiens, UniProt P50406). Put plainly: biochemical.
Description: Displacement of [3H]-LSD from human recombinant 5-HT6 receptor expressed in CHOK1 cell membranes measured after 60 mins by scintillation counter
The target of data set [3] is Acetylcholinesterase (Electrophorus electricus, UniProt O42275).
Chain of Acetylcholinesterase (Electrophorus electricus, UniProt O42275) (O42275 whole entry): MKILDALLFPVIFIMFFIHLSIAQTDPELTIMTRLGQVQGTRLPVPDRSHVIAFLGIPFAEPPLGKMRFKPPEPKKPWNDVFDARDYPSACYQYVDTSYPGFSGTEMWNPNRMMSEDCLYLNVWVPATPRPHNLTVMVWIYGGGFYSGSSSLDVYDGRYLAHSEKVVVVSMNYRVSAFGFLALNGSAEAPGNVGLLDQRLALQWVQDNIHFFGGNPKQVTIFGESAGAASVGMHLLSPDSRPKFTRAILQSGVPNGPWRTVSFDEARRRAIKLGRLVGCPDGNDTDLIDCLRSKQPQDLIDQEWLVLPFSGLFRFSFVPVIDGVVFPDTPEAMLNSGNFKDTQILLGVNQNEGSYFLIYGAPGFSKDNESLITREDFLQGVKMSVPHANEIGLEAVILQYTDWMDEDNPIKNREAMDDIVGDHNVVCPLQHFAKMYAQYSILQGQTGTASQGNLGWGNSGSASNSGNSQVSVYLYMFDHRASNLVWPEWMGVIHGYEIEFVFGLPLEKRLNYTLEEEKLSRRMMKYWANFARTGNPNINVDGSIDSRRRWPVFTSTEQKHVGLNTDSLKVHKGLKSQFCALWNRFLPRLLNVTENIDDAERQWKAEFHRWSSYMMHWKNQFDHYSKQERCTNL
Description: Inhibition of electric eel AChE preincubated for 5 mins followed by acetylthiocholine iodide substrate addition measured after 5 mins by Ellman's method
Data set [4] addresses Acetylcholinesterase (Homo sapiens, UniProt P22303). The experiment in a line: Inhibition of human recombinant AChE preincubated for 5 mins followed by acetylthiocholine iodide substrate addition measured after 5 mins by Ellman's method. (DTNB colorimetry detects thiols as they appear.)
The conditions of data set [5]: PAMPA, 2 h. On the technique in general: PAMPA measures passive passage across an artificial lipid membrane.
Data set [6] deals with Cholinesterase (Equus caballus) (UniProt P81908). Put plainly: Inhibition of equine serum BuChE at 10 uM preincubated for 5 mins followed by butyrylthiocholine iodide substrate addition measured after 5 mins by Ellman's method relative to control.
Chain of Cholinesterase (Equus caballus) (P81908 whole entry): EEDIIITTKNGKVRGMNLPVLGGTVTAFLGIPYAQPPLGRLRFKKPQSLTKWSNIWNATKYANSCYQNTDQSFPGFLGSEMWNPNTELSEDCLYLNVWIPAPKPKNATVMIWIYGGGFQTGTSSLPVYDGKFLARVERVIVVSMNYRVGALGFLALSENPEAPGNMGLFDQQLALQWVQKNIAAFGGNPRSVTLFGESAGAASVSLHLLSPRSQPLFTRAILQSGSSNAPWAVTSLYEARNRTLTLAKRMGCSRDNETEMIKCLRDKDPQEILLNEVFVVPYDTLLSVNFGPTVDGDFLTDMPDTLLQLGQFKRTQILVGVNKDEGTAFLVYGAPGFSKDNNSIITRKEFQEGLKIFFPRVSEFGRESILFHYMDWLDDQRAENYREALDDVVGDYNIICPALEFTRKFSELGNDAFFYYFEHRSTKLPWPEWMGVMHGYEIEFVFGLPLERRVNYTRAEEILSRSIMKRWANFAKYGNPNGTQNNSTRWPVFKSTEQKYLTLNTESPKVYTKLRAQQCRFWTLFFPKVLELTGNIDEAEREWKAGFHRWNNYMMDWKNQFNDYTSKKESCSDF
The target in data set [7] is Acetylcholinesterase (Electrophorus electricus) (UniProt O42275). The experiment in a line: Non-competitive inhibition of electric eel AChE at 30 to 120 nM using varying levels of acetylthiocholine iodide substrate preincubated for 5 mins followed by substrate addition measured after 5 mins by Line-weaver burk plot method.
Chain of Acetylcholinesterase (Electrophorus electricus) (O42275 24-633 limits assumed): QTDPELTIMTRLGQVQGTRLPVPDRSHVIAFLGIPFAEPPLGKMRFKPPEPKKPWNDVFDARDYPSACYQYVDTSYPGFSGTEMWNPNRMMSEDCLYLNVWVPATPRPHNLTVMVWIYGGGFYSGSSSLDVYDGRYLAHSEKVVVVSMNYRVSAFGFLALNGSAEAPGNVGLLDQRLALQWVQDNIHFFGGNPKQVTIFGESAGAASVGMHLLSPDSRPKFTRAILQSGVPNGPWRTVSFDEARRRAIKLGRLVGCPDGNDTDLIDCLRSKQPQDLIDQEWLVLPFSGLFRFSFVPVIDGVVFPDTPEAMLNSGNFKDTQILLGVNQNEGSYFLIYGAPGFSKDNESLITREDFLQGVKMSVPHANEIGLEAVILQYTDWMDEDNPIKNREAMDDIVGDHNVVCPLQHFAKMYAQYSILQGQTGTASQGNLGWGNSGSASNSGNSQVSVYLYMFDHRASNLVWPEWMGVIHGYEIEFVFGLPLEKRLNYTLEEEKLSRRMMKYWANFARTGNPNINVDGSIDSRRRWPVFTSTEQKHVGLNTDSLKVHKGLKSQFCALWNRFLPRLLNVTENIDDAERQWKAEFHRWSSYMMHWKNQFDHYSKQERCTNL
Data set [8] addresses Cholinesterase (Homo sapiens, UniProt P06276). Put plainly: Inhibition of human recombinant BuChE preincubated for 5 mins followed by butyrylthiocholine iodide substrate addition measured after 5 mins by Ellman's method.
For data set [9], the system named is Rattus norvegicus. Put plainly: Reversal of scopolamine-induced hyperlocomotion in ip dosed Wistar rat. It counts as functional, organism-based.
Data set [10] deals with Rattus norvegicus. Put plainly: Reduction in spontaneous locomotor activity in ip dosed Wistar rat pretreated for 30 mins by open field assay. Type of data set: functional, organism-based.
Data set [11] concerns Rattus norvegicus. Put plainly: Reduction in spontaneous locomotor activity in Wistar rat at 10 mg/kg, ip pretreated for 30 to 180 mins by open field assay. Type of data set: functional, organism-based.
Data set [12] can be described thus: Reduction of spontaneous locomotor activity below baseline in Wistar rat at 10 mg/kg, ip in presence of scopolamine by open field assay. Type of data set: ADME, organism-based. The following applies: in vivo.
The target in data set [13] is Cholinesterase (Equus caballus) (UniProt P81908). The note with it: 9 to 30 nM.

Chain of 5-hydroxytryptamine receptor 6 (P50406 whole entry): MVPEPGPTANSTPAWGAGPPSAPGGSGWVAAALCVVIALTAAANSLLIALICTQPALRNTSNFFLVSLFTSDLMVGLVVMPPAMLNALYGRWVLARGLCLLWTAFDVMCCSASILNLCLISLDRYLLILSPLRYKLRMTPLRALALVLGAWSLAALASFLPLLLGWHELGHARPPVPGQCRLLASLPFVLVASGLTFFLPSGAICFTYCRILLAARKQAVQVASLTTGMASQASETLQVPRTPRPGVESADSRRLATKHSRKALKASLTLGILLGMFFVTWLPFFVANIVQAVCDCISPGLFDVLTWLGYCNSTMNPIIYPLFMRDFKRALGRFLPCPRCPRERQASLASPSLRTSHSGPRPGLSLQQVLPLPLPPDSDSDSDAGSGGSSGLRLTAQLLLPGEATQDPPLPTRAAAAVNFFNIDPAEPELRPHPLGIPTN
Chain of Acetylcholinesterase (Homo sapiens, UniProt P22303) (P22303 whole entry): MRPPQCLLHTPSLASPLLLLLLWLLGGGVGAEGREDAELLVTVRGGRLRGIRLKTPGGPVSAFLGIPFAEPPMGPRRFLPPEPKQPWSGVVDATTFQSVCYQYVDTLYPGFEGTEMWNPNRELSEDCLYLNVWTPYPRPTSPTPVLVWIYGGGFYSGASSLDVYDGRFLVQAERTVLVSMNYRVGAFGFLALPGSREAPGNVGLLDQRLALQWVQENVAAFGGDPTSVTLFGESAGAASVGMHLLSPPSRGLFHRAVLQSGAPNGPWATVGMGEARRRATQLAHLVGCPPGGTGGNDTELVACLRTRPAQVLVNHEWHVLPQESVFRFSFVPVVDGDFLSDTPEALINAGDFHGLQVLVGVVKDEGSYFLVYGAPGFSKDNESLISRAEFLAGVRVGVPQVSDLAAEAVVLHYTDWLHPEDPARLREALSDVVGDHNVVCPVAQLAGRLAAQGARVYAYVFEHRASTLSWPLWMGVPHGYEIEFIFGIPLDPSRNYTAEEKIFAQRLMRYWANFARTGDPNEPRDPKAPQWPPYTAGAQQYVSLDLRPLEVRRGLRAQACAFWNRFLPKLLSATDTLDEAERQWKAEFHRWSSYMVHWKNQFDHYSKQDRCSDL
Chain of Cholinesterase (Equus caballus, UniProt P81908) (P81908 whole entry): as the sequence (P81908 whole entry) above
Chain of Cholinesterase (Homo sapiens, UniProt P06276) (P06276 whole entry): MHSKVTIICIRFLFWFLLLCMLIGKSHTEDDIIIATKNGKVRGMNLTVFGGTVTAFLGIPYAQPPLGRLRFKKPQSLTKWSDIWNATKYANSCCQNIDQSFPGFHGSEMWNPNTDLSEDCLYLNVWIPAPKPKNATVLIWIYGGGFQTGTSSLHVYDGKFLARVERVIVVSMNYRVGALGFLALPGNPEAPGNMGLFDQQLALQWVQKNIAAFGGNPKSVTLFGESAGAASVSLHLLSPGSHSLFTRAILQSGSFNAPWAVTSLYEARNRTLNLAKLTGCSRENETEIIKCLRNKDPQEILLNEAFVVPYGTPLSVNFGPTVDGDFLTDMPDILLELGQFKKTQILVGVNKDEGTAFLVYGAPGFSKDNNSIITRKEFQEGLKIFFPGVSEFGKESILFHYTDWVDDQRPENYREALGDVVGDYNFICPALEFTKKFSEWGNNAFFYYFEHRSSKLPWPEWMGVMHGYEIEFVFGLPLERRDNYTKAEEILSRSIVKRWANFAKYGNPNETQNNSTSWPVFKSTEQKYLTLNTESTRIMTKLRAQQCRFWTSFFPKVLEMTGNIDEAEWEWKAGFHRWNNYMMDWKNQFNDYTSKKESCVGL

Turning to `CN(CCCCN1CCN(c2cccc3c2ccn3S(=O)(=O)c2ccccc2)CC1)Cc1ccccc1`, on Cholinesterase [1], the IC50 was 6220 nM. Moreover, in [2], the affinity, expressed as Ki, was 4 nM.
Molecule `O=S(=O)(c1ccccc1)n1ccc2c(N3CCN(CCNC4CCN(Cc5ccccc5)C4)CC3)cccc21` (stereo unspecified) yielded a half-maximal inhibitory concentration (IC50) at Cholinesterase [1] of 3390 nM. This molecule also had a Ki in data set [2] of 13 nM.
For `O=S(=O)(c1ccccc1)n1ccc2c(N3CCN(CCCNc4c5c(nc6ccccc46)CCCC5)CC3)cccc21`, the IC50 on Acetylcholinesterase [3] is 12.1 nM; against Cholinesterase [1], 14.2 nM; at Acetylcholinesterase [4], 9.7 nM. In [2], the Ki turned out to be 6 nM.
`CN(CCN1CCN(c2cccc3c2ccn3S(=O)(=O)c2ccccc2)CC1)Cc1ccccc1` registered a 50% inhibitory concentration (IC50) against Cholinesterase [1] of 1950 nM. The same molecule returned an inhibition constant (Ki) in data set [2] of 15 nM.
In data set [5], `CC(C)NCC(O)COc1cccc2ccccc12` (stereo unspecified) [PROPRANOLOL] showed a logPeff of -3.7.
Consider `O=S(=O)(c1ccccc1)n1ccc2c(N3CCN(CCNCc4ccccc4)CC3)cccc21`, for which 1310 nM corresponded to half-maximal inhibition at Cholinesterase [1] (IC50). Also, the affinity in data set [2] corresponds to a Ki of 12 nM.
In the case of `O=S(=O)(c1ccccc1)n1ccc2c(N3CCN(CCCCCNCc4ccccc4)CC3)cccc21`, the figures for the concentration for half-maximal inhibition (IC50) against Acetylcholinesterase [3] and on Cholinesterase [1] were 4410 nM and 1670 nM, respectively. Further, the Ki in data set [2] was 8 nM.
Consider `O=S(=O)(c1ccccc1)n1ccc2c(N3CCN(CCCNCc4ccccc4)CC3)cccc21`, for which the IC50 against Cholinesterase [1] stood at 608 nM. The Ki in data set [2] was 16 nM.
For `CC(=O)[C@H]1CC[C@H]2[C@@H]3CCC4=CC(=O)CC[C@]4(C)[C@H]3CC[C@]12C` [PROGESTERONE], the logPeff in [5] was -3.8.
With `O=S(=O)(c1ccccc1)n1ccc2c(N3CCN(CCNc4c5c(nc6ccccc46)CCCC5)CC3)cccc21`, the concentration for half-maximal inhibition (IC50) against Acetylcholinesterase [3] came to 7.5 nM; at Cholinesterase [1], 16.8 nM; at Acetylcholinesterase [4] it was 43.6 nM. In addition, the inhibition constant (Ki) in data set [2] was 10 nM.
In the case of `O=S(=O)(c1ccccc1)n1ccc2c(N3CCN(CCCCCNc4c5c(nc6ccccc46)CCCC5)CC3)cccc21`, the IC50 was determined as 57 nM at Acetylcholinesterase [3], 21.3 nM against Cholinesterase [1] and 18.2 nM at Acetylcholinesterase [4]. Moreover, in data set [2], the inhibition constant (Ki) came to 8 nM.
In [6], `CN(CCCN1CCN(c2cccc3c2ccn3S(=O)(=O)c2ccccc2)CC1)Cc1ccccc1` registered an inhibition of 27.8%. Also, the inhibitory constant (Ki) in data set [2] is 10 nM.
Take `O=S(=O)(c1ccccc1)n1ccc2c(N3CCN(CCCCCCCCNc4c5c(nc6ccccc46)CCCC5)CC3)cccc21`: the values for the IC50 against Acetylcholinesterase [3], against Cholinesterase [1] and on Acetylcholinesterase [4] were 7.1 nM, 12.4 nM and 1.3 nM, respectively. This molecule also came in with an inhibitory constant (Ki) in data set [2] of 36 nM.
As to `O=S(=O)(c1ccccc1)n1ccc2c(N3CCN(CCCCNC4CCN(Cc5ccccc5)CC4)CC3)cccc21`, half-maximal inhibition against Cholinesterase [1] (IC50) was put at 2160 nM. The Ki in data set [2] was 16 nM.
On the same counts, the results for `CN(CCCCCN1CCN(c2cccc3c2ccn3S(=O)(=O)c2ccccc2)CC1)Cc1ccccc1` are 3070 nM and 10 nM.
Regarding `O=S(=O)(c1ccccc1)n1ccc2c(N3CCN(CCCCCCNc4c5c(nc6ccccc46)CCCC5)CC3)cccc21`, the IC50 against Acetylcholinesterase [3] worked out at 45.9 nM; at Cholinesterase [8], 29.7 nM; at Cholinesterase [1], 8.2 nM; on Acetylcholinesterase [4], 12.9 nM. For the same molecule, the inhibition result in data set [7] and in [13] was “Active” in each case. Also, the Activity result in the data set with Rattus norvegicus [9] was “Dose-dependent effect”; in the data set on Rattus norvegicus [10] it was “Dose-dependent effect”; in data set [12], “Non-Toxic”. In data set [2], this molecule returned an inhibitory constant (Ki) of 2 nM. Besides, in the data set on Rattus norvegicus [11], the result was Active.
For the molecule `O=S(=O)(c1ccccc1)n1ccc2c(N3CCN(CCNC4CCN(Cc5ccccc5)CC4)CC3)cccc21`, 10600 nM corresponded to half-maximal inhibition on Cholinesterase [1] (IC50). In data set [2], this molecule displayed an inhibition constant (Ki) of 39 nM.
For `O=S(=O)(c1ccccc1)n1ccc2c(N3CCN(CCCCCCNCc4ccccc4)CC3)cccc21` the same measures were 2380 nM and 2 nM.
For `O=S(=O)(c1ccccc1)n1ccc2c(N3CCN(CCCCCCCNc4c5c(nc6ccccc46)CCCC5)CC3)cccc21`, the results for the IC50 against Acetylcholinesterase [3], against Cholinesterase [1] and on Acetylcholinesterase [4] were 15.1 nM, 10 nM and 6.2 nM, respectively. The molecule also yielded an inhibition constant (Ki) in [2] of 36 nM.
In turn, `O=S(=O)(c1ccccc1)n1ccc2c(N3CCNCC3)cccc21` showed an inhibition in data set [6] of 45.8%.
`O=S(=O)(c1ccccc1)n1ccc2c(N3CCN(CCCCNCc4ccccc4)CC3)cccc21`: half-maximal inhibition at Cholinesterase [1] (IC50) required 2210 nM. In addition, the Ki in [2] amounted to 8 nM.
On Cholinesterase [1], `O=S(=O)(c1ccccc1)n1ccc2c(N3CCN(CCCNC4CCN(Cc5ccccc5)CC4)CC3)cccc21` displayed a half-inhibitory concentration (IC50) of 3220 nM. Also, affinity in data set [2] was put at a Ki of 2 nM.
